In ChEMBL document CHEMBL2331144, “Synthesis and anticancer activity of analogues of phenstatin, with a phenothiazine A-ring, as a new class of microtubule-targeting agents” (Bioorg Med Chem Lett, 2013):

Legend:
[1] = tested on: MOLT-4; assay: Growth inhibition of human MOLT4 cells after 48 hrs by sulforhodamine B assay; format: functional; details: MOLT-4, 48 h
[2] = tested on: COLO 205; assay: Growth inhibition of human COLO205 cells after 48 hrs by sulforhodamine B assay; format: functional; details: COLO 205, 48 h
[3] = species on record: Ovis aries; assay: Inhibition of sheep brain tubulin polymerization at 100 uM using DAPI by fluorimetry
[4] = tested on: T47D; assay: Growth inhibition of human T47D cells after 48 hrs by sulforhodamine B assay; format: functional
[5] = tested on: MCF7; assay: Growth inhibition of human MCF7 cells after 48 hrs by sulforhodamine B assay; format: functional; details: MCF7, 48 h
[6] = tested on: OVCAR-4; assay: Growth inhibition of human OVCAR4 cells after 48 hrs by sulforhodamine B assay; format: functional; details: OVCAR-4, 48 h
[7] = tested on: SK-MEL-5; assay: Growth inhibition of human SK-MEL-5 cells after 48 hrs by sulforhodamine B assay; format: functional; details: SK-MEL-5, 48 h
[8] = tested on: A498; assay: Growth inhibition of human A498 cells after 48 hrs by sulforhodamine B assay; format: functional; details: A498, 48 h
[9] = tested on: RPMI-8226; assay: Growth inhibition of human RPMI8226 cells after 48 hrs by sulforhodamine B assay; format: functional; details: RPMI-8226, 48 h
[10] = Growth inhibition of human Hs 578T cells after 48 hrs by sulforhodamine B assay; format: functional
[11] = tested on: CAKI-1; assay: Growth inhibition of human CAKI-1 cells after 48 hrs by sulforhodamine B assay; format: functional; details: CAKI-1, 48 h
[12] = tested on: SK-OV-3; assay: Growth inhibition of human SKOV3 cells after 48 hrs by sulforhodamine B assay; format: functional; details: SK-OV-3, 48 h
[13] = tested on: BT-549; assay: Growth inhibition of human BT549 cells after 48 hrs by sulforhodamine B assay; format: functional; details: BT-549, 48 h
[14] = tested on: UACC-257; assay: Growth inhibition of human UACC257 cells after 48 hrs by sulforhodamine B assay; format: functional; details: UACC-257, 48 h
[15] = tested on: RXF 393; assay: Growth inhibition of human RXF393 cells after 48 hrs by sulforhodamine B assay; format: functional; details: RXF 393, 48 h
[16] = tested on: SK-MEL-28; assay: Growth inhibition of human SK-MEL-28 cells after 48 hrs by sulforhodamine B assay; format: functional; details: SK-MEL-28, 48 h
[17] = tested on: HOP-92; assay: Growth inhibition of human HOP92 cells after 48 hrs by sulforhodamine B assay; format: functional; details: HOP-92, 48 h
[18] = Growth inhibition of human NCI-ADR-RES cells after 48 hrs by sulforhodamine B assay; format: functional
[19] = tested on: ACHN; assay: Growth inhibition of human ACHN cells after 48 hrs by sulforhodamine B assay; format: functional
[20] = tested on: HOP-62; assay: Growth inhibition of human HOP62 cells after 48 hrs by sulforhodamine B assay; format: functional; details: HOP-62, 48 h
[21] = tested on: DU-145; assay: Growth inhibition of human DU145 cells after 48 hrs by sulforhodamine B assay; format: functional; details: DU-145, 48 h
[22] = tested on: SK-MEL-2; assay: Growth inhibition of human SK-MEL-2 cells after 48 hrs by sulforhodamine B assay; format: functional; details: SK-MEL-2, 48 h
[23] = tested on: MDA-MB-468; assay: Growth inhibition of human MDA-MB-468 cells after 48 hrs by sulforhodamine B assay; format: functional; details: MDA-MB-468, 48 h
[24] = tested on: MDA-MB-231; assay: Growth inhibition of human MDA-MB-231 cells after 48 hrs by sulforhodamine B assay; format: functional; details: MDA-MB-231, 48 h
[25] = tested on: LOX IMVI; assay: Growth inhibition of human LOXIMVI cells after 48 hrs by sulforhodamine B assay; format: functional
[26] = tested on: 786-0; assay: Growth inhibition of human 786-0 cells after 48 hrs by sulforhodamine B assay; format: functional; details: 786-0, 48 h
[27] = tested on: OVCAR-3; assay: Growth inhibition of human OVCAR3 cells after 48 hrs by sulforhodamine B assay; format: functional; details: OVCAR-3, 48 h
[28] = tested on: Malme-3M; assay: Growth inhibition of human MALME-3M cells after 48 hrs by sulforhodamine B assay; format: functional
[29] = tested on: A549; assay: Growth inhibition of human A549/ATCC cells after 48 hrs by sulforhodamine B assay; format: functional; details: A549, 48 h
[30] = tested on: OVCAR-8; assay: Growth inhibition of human OVCAR8 cells after 48 hrs by sulforhodamine B assay; format: functional; details: OVCAR-8, 48 h
[31] = tested on: NCI-H522; assay: Growth inhibition of human NCI-H522 cells after 48 hrs by sulforhodamine B assay; format: functional; details: NCI-H522, 48 h
[32] = tested on: NCI-H460; assay: Growth inhibition of human NCI-H460 cells after 48 hrs by sulforhodamine B assay; format: functional; details: NCI-H460, 48 h
[33] = tested on: SF-295; assay: Growth inhibition of human SF295 cells after 48 hrs by sulforhodamine B assay; format: functional; details: SF-295, 48 h
[34] = tested on: PC-3; assay: Growth inhibition of human PC3 cells after 48 hrs by sulforhodamine B assay; format: functional; details: PC-3, 48 h
[35] = tested on: UO-31; assay: Growth inhibition of human UO31 cells after 48 hrs by sulforhodamine B assay; format: functional; details: UO-31, 48 h
[36] = Growth inhibition of human HCC2998 cells after 48 hrs by sulforhodamine B assay; format: functional; details: HCC 2998, 48 h
[37] = tested on: NCI-H23; assay: Growth inhibition of human NCI-H23 cells after 48 hrs by sulforhodamine B assay; format: functional; details: NCI-H23, 48 h
[38] = Inhibition of sheep brain tubulin polymerization using DAPI by fluorimetry; parameters: species or system Ovis aries
[39] = tested on: MDA-MB-435; assay: Growth inhibition of human MDA-MB-435 cells after 48 hrs by sulforhodamine B assay; format: functional; details: MDA-MB-435, 48 h
[40] = Growth inhibition of human EKVX cells after 48 hrs by sulforhodamine B assay; format: functional
[41] = tested on: SF-539; assay: Growth inhibition of human SF539 cells after 48 hrs by sulforhodamine B assay; format: functional; details: SF-539, 48 h
[42] = tested on: SW-620; assay: Growth inhibition of human SW620 cells after 48 hrs by sulforhodamine B assay; format: functional; details: SW-620, 48 h
[43] = tested on: SN12C; assay: Growth inhibition of human SN12C cells after 48 hrs by sulforhodamine B assay; format: functional
[44] = tested on: K562; assay: Growth inhibition of human K562 cells after 48 hrs by sulforhodamine B assay; format: functional; details: K562, 48 h
[45] = tested on: SR; assay: Growth inhibition of human SR cells after 48 hrs by sulforhodamine B assay; format: functional
[46] = tested on: SF-268; assay: Growth inhibition of human SF268 cells after 48 hrs by sulforhodamine B assay; format: functional; details: SF-268, 48 h
[47] = tested on: HCT-15; assay: Growth inhibition of human HCT15 cells after 48 hrs by sulforhodamine B assay; format: functional; details: HCT-15, 48 h
[48] = tested on: M14; assay: Growth inhibition of human M14 cells after 48 hrs by sulforhodamine B assay; format: functional; details: M14, 48 h
[49] = tested on: IGROV-1; assay: Growth inhibition of human IGROV1 cells after 48 hrs by sulforhodamine B assay; format: functional; details: IGROV-1, 48 h
[50] = tested on: SNB-75; assay: Growth inhibition of human SNB75 cells after 48 hrs by sulforhodamine B assay; format: functional; details: SNB-75, 48 h
[51] = tested on: KM12; assay: Growth inhibition of human KM12 cells after 48 hrs by sulforhodamine B assay; format: functional; details: KM12, 48 h
[52] = tested on: UACC-62; assay: Growth inhibition of human UACC62 cells after 48 hrs by sulforhodamine B assay; format: functional; details: UACC-62, 48 h
[53] = tested on: TK-10; assay: Growth inhibition of human TK10 cells after 48 hrs by sulforhodamine B assay; format: functional; details: TK-10, 48 h
[54] = tested on: HL-60(TB); assay: Growth inhibition of human HL-60(TB) cells after 48 hrs by sulforhodamine B assay; format: functional; details: HL-60, 48 h
[55] = tested on: HCT-116; assay: Growth inhibition of human HCT116 cells after 48 hrs by sulforhodamine B assay; format: functional; details: HCT-116, 48 h
[56] = tested on: HT-29; assay: Growth inhibition of human HT-29 cells after 48 hrs by sulforhodamine B assay; format: functional; details: HT-29, 48 h
[57] = tested on: CCRF-CEM; assay: Growth inhibition of human CCRF-CEM cells after 48 hrs by sulforhodamine B assay; format: functional
[58] = tested on: OVCAR-5; assay: Growth inhibition of human OVCAR5 cells after 48 hrs by sulforhodamine B assay; format: functional; details: OVCAR-5, 48 h

## COc1ccc(C(=O)N2c3ccccc3Sc3ccccc32)cc1F
[1]
  GI50: 442 nM
[2]
  GI50: 244 nM
[3]
  inhibition: 95%
[4]
  GI50: 468 nM
[5]
  GI50: 316 nM
[6]
  GI50: 6560 nM
[7]
  GI50: 335 nM
[8]
  GI50: 211 nM
[9]
  GI50: 259 nM
[10]
  GI50: 285 nM
[11]
  GI50: 561 nM
[12]
  GI50: 322 nM
[13]
  GI50: 604 nM
[14]
  GI50: 671 nM
[15]
  GI50: 272 nM
[16]
  GI50: 543 nM
[17]
  GI50: 209 nM
[18]
  GI50: 112 nM
[19]
  GI50: 1890 nM
[20]
  GI50: 539 nM
[21]
  GI50: 303 nM
[22]
  GI50: 355 nM
[23]
  GI50: 249 nM
[24]
  GI50: 570 nM
[25]
  GI50: 590 nM
[26]
  GI50: 590 nM
[27]
  GI50: 312 nM
[28]
  GI50: 991 nM
[29]
  GI50: 382 nM
[30]
  GI50: 384 nM
[31]
  GI50: 102 nM
[32]
  GI50: 372 nM
[33]
  GI50: 229 nM
[34]
  GI50: 419 nM
[35]
  GI50: 2220 nM
[36]
  GI50: 314 nM
[37]
  GI50: 393 nM
[38]
  IC50: 9480 nM
[39]
  GI50: 35 nM
[40]
  GI50: 964 nM
[41]
  GI50: 290 nM
[42]
  GI50: 358 nM
[43]
  GI50: 760 nM
[44]
  GI50: 143 nM
[45]
  GI50: 271 nM
[46]
  GI50: 819 nM
[47]
  GI50: 405 nM
[48]
  GI50: 216 nM
[49]
  GI50: 572 nM
[50]
  GI50: 222 nM
[51]
  GI50: 239 nM
[52]
  GI50: 518 nM
[53]
  GI50: 586 nM
[54]
  GI50: 267 nM
[55]
  GI50: 375 nM
[56]
  GI50: 251 nM
[57]
  GI50: 300 nM
[58]
  GI50: 522 nM

## O=C(c1ccc2c(c1)Sc1ccccc1N2)c1c[nH]c2ccccc12
[1]
  GI50: 3750 nM
[2]
  GI50: 435 nM
[3]
  inhibition: 66%
[4]
  GI50: 502 nM
[5]
  GI50: 293 nM
[6]
  GI50: 16500 nM
[7]
  GI50: 408 nM
[8]
  GI50: 251 nM
[9]
  GI50: 761 nM
[10]
  GI50: 702 nM
[11]
  GI50: 462 nM
[12]
  GI50: 533 nM
[13]
  GI50: 398 nM
[14]
  GI50: 581 nM
[15]
  GI50: 1270 nM
[16]
  GI50: 647 nM
[17]
  GI50: 970 nM
[18]
  GI50: 247 nM
[19]
  GI50: 1780 nM
[20]
  GI50: 670 nM
[21]
  GI50: 1420 nM
[22]
  GI50: 397 nM
[23]
  GI50: 314 nM
[24]
  GI50: 1110 nM
[25]
  GI50: 446 nM
[26]
  GI50: 1900 nM
[27]
  GI50: 404 nM
[28]
  GI50: 997 nM
[29]
  GI50: 634 nM
[30]
  GI50: 1040 nM
[31]
  GI50: 248 nM
[32]
  GI50: 429 nM
[33]
  GI50: 323 nM
[34]
  GI50: 654 nM
[35]
  GI50: 1030 nM
[36]
  GI50: 976 nM
[37]
  GI50: 943 nM
[38]
  IC50: 38900 nM
[39]
  GI50: 112 nM
[40]
  GI50: 11600 nM
[41]
  GI50: 576 nM
[42]
  GI50: 406 nM
[43]
  GI50: 888 nM
[44]
  GI50: 395 nM
[45]
  GI50: 382 nM
[46]
  GI50: 1500 nM
[47]
  GI50: 489 nM
[48]
  GI50: 372 nM
[49]
  GI50: 620 nM
[50]
  GI50: 326 nM
[51]
  GI50: 365 nM
[52]
  GI50: 532 nM
[53]
  GI50: 2140 nM
[54]
  GI50: 382 nM
[55]
  GI50: 404 nM
[56]
  GI50: 368 nM
[57]
  GI50: 380 nM
[58]
  GI50: 1750 nM
